Data on 3 compounds can be found in patent publication US4853407A, “Aminoethylcysteine derivatives” (Sanraku Incorporated, priority 1987, dated 1989).

Data set [1] can be described thus: In vivo test on dipeptidase-inhibiting activity (recovery of co-administered antibiotic 88617 in urine). More on the design: species or system ddY mice. Conditions: mouse, sc; control: antibiotic 88617 alone, 20 mg/kg subcutaneous; urine collected 6 hours; average of five mice; read-out: Recovery ratio of antibiotic 88617 in urine. Here is the method:
(§1) Five weeks aged ddY mice were grouped five mice for one group, and aqueous solutions containing 80 or 250 mg/ml concentration of the dipeptidase-inhibiting agent of this invention (adjusted with 1N NaOH to pH 7.5) were intravenously administered to the mice. A control group was administered with a same amount of pure water. 3 to 5 minutes after the administration, 0.25 ml of an antibiotic 88617 (M/100 PBS, pH 7.0 solutions) at 5 or 20 mg/kg-mouse were subcutaneously administered to the mice. Six hours after the administration of the antibiotic 88617, all the urines of the mice were collected and the concentrations of the antibiotic 88617 in all the collected urines were measured by disc-agar diffusion method in which Comamonas terrigena was used as test bacteria, and average values of five mice were determined.

For data set [2], the target named is T1, dipeptidase (Rattus norvegicus, UniProt P31430).
T1 construct: to obtain a partially purified sample of dipeptidase; from tissue; host or cells: rat kidney, microsome fraction, trypsin-treated, Triton X-100 solubilised, partially purified
As to the kind of experiment: In vitro test on dipeptidase-inhibiting activity (antibiotic PS-5 as substrate, absorbance at 301 nm). The data set is classed as biochemical. Conditions: partially purified dipeptidase from rat kidney; substrate antibiotic PS-5, pH 8.0, 37° C., 5 minutes; read-out: ID50 (the source's name). As for the experimental part:
Rats were sacrificed by decapitation to bleed, and about 12 g of fresh kidneys were collected. And a microsome fraction was obtained by subcellular fractionating method according to fractional centrifugation of Hogboom (Methods in Enzymology, vol. 1, pages 16-19, Academic Press, New York, 1955). This microsome fraction was treated with 400 μg/ml of trypsin at 0° C. for 16 hours, and then subjected to fractional ultracentrifugation at 10^5 G at 0° C. for 60 minutes.
The resultant precipitate was solubilized by 20 ml of Tris-HCl buffer (20 mM, pH 7.6) containing a surfactant (0.4% Triton® X-100), and subjected to fractional ultracentrifugation at 10^5 G at 0° C. for 60 minutes. […]
The enzyme obtained above ([…]) was preincubated together with 30 μl of an inhibiting agent solution in a cuvette at 37° C. for 5 minutes. […] The reaction was carried out within a cuvette of HITACHI spectrophotometer equipped with a constant temperature device (37° C.), and decreases of absorbance at a wavelength of 301 nm for 5 minutes were determined by a recorder.
By the values obtained above and values from control containing no inhibiting agent, the percent inhibition and ID50 at a predetermined inhibition concentration were determined.

In data set [3] the test system is dipeptidase. As to the kind of experiment: In vivo test on dipeptidase-inhibiting activity (recovery of co-administered antibiotic 88617 in urine). More on the design: species or system ddY mice. The following applies: 6 hours, average of five mice. As for the experimental part: as §1

T1 sequence (P31430 17-410): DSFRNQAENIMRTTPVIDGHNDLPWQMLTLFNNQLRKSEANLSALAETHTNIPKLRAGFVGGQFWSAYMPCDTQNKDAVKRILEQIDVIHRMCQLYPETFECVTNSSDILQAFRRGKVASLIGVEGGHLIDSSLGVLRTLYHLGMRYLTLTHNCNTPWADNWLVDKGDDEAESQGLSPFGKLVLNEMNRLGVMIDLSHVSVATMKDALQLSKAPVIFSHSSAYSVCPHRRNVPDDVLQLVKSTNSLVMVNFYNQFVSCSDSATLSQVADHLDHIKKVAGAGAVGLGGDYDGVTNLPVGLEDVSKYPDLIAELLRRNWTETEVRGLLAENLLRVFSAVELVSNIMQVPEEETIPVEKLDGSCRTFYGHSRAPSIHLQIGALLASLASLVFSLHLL

For the compound `CN=C(CSC1=C(C(=O)O)N2C(=O)C(C(C)F)C2C1)N(C)C` (centres unmarked) [Antibiotic 88617, reference compound], the dose excreted at 6 h in data set [1] is 27.5%. For the compound `O=C(NCCSC[C@H](NC(=O)c1ccccc1)C(=O)O)c1ccccc1` [Compound No. 1, N-benzoyl-S-(2-benzoylaminoethyl)-L-cysteine], at dipeptidase [2], the IC50 was determined as 210 µM. Moreover, the “Recovery ratio of antibiotic 88617 in urine when dipeptidase-inhibiting agent was co-administered” value with dipeptidase [3] (inhibitor 50 mg/kg intravenous in combination with antibiotic 88617 20 mg/kg subcutaneous) turned out to be 38.0%; with dipeptidase [3] (inhibitor 250 mg/kg intravenous in combination with antibiotic 88617 20 mg/kg subcutaneous), 57.2%. In the case of `O=C(O)[C@H](CSCCN1C(=O)c2ccccc2C1=O)N1C(=O)c2ccccc2C1=O` [Compound No. 2, S-(2-phthalimidethyl)-N-phthaloyl-L-cysteine], the IC50 at dipeptidase [2] amounted to 480 µM.
